In patent US20180118718A1, “Substituted Quinoxaline Derivatives” (Selvita S.A., priority 2015, published 2018):
Structures can show the parent of a compound that is named as a salt.

Target: T1, Human recombinant His-tagged PFKFB3 (Homo sapiens, UniProt Q16875)
T1 construct: His; made in house
Test: PFKFB3 IC50 Determination Assay (in vitro kinase assay, modified ADP-Glo system)
Type: biochemical
Conditions: ATP 20 μM and fructose-6-phosphate 2 μM (Km), 25 nM PFKFB3, 2 h, rt, ADP-Glo luminescence
Method: PFKFB3 IC50 Determination Assay
In vitro kinase assay used to determine IC50 values for tested inhibitors is based on a modified ADP-Glo™ system (Promega) and consists of two parts:
1. Kinase reaction—performed in optimized conditions. At this step PFKFB3 phosphorylates its substrate Fructose-6-phosphate using ATP as a source of phosphate to produce Fructose-2,6-bisphosphate and ADP. Reaction is performed at Km values for ATP and substrate using optimized buffer composition and time of the reaction. Human recombinant His-tagged PFKFB3 (PFKFB3 BATCH II SEC) with confirmed activity is produced and purified in-house. 2. Detection of ADP as a product of the reaction using ADP-Glo™ system. This part is conducted by using the commercially available kit ADP-Glo™ Kinase Assay (Promega, cat. No# V9103) according to manufacturer's instruction, modified by 5x dilutions of assay reagents (both ADP-Glo™ Reagent and Kinase Detection Solution).
Test compounds are dissolved in DMSO and then transferred to the V-bottom 96-well plate.
15 μL per well of Mix 1 is transferred to assay wells of 96-well white plate. […] Total reaction volume is 30 μL per well. Samples are tested in duplicates. Final concentration of DMSO in the reaction is 6.7%. Conditions needed for performing PFKFB3 (PFKFB3 BATCH II SEC) in vitro kinase assay are given below:
This protocol is based on Technical Bulletin, ADP-Glo™ Kinase Assay (Promega) and is adapted to 96-well plate containing 30 μL reaction mixture:
30 μL of 5x diluted ADP-Glo™ Reagent is added to each well of 96-well plate containing 30 μL of reaction mixture. The plate is incubated for 90 minutes on a shaker at RT. 60 μL of 5x diluted Kinase Detection Solution is added to each well of 96-well plate containing 60 μL of the solution (ratio of kinase reaction volume to ADP-Glo™ Reagent volume to Kinase Detection Solution volume is maintained at 1:1:2). Plate is incubated for 40 minutes on a shaker at RT, protected from light. Luminescence is measured in the plate reader Synergy 2 (BioTek).
Luminescent readouts for compounds tested in 10 concentrations (routinely from 100 μM to […], […] serial dilutions) in duplicates, as well as for positive control, are first normalized to no-substrate negative control by its subtraction. In the next step, % of normalized positive control is calculated for each data point and plotted against test compound concentration:
% of control percent of positive control normalized to no-substrate negative control Lumcpd luminescence of test compound Lumneg luminescence of no-substrate negative control Lumpos luminescence of positive control
IC50 parameter is determined by the GraphPad Prism 5.0 software [log(inhibitor) vs. response −Variable slope (four parameters)].

T1 sequence (Q16875 whole entry): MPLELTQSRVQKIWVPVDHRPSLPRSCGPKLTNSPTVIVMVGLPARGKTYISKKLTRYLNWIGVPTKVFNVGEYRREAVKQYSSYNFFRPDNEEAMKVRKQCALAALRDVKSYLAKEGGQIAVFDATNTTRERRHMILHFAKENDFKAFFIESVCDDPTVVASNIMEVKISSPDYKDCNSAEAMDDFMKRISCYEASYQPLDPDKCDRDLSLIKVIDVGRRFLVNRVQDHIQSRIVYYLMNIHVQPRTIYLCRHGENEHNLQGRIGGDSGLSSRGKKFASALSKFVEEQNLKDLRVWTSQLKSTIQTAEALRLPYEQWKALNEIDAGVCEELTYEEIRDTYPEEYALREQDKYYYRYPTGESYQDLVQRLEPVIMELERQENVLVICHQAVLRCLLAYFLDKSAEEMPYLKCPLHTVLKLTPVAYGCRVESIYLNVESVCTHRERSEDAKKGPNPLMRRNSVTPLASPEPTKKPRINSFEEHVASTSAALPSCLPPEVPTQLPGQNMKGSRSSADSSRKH

| IC50 | Compound |
| --- | --- |
| 10000 to 100000 nM | CS(=O)(=O)c1ccncc1Nc1cc(-c2ccc(NC(=O)C3CCCN3)cc2)c2nccnc2c1 (centres unmarked) [Example 164, N-(4-{7-[(4-methanesulfonylpyridin-3-yl)amino]quinoxalin-5-yl}phenyl)pyrrolidine-2-carboxamide] |
| 1 to 1000 nM | Cc1coc2ccc(-c3cc(Nc4cnccc4C(N)=O)cc4nccnc34)cc12 [Example 26, 3-{[8-(3-Methyl-1-benzofuran-5-yl)quinoxalin-6-yl]amino}pyridine-4-carboxamide] |
| 1 to 1000 nM | Cn1ccc2ccc(-c3cc(Nc4ncccc4S(C)(=O)=O)cc4nccnc34)cc21 [Example 81, N-(3-Methanesulfonylpyridin-2-yl)-8-(1-methyl-1H-indol-6-yl)quinoxalin-6-amine] |
| 1 to 1000 nM | CNc1ccc(S(C)(=O)=O)c(Nc2cc(-c3ccc4ccn(C)c4c3)c3nccnc3c2)c1 [Example 57, 4-Methanesulfonyl-N1-methyl-N3-[8-(1-methyl-1H-indol-6-yl)quinoxalin-6-yl]benzene-1,3-diamine] |
| 1 to 1000 nM | Cn1ccc2ccc(-c3cc(Nc4ccccc4S(C)(=O)=O)cc4nccnc34)nc21 [Example 21, N-(2-Methanesulfonylphenyl)-8-{1-methyl-1H-pyrrolo[2,3-b]pyridin-6-yl}quinoxalin-6-amine trifluoroacetate] |
| 1000 to 10000 nM | CN(c1cc(-c2ccc3ccn(C)c3c2)c2nccnc2c1)c1cnccc1C(N)=O [Example 95, 3-{Methyl[8-(1-methyl-1H-indol-6-yl)quinoxalin-6-yl]amino}pyridine-4-carboxamide] |
| 1000 to 10000 nM | CCc1cccc(-c2cc(Nc3cnccc3S(C)(=O)=O)cc3nccnc23)c1 [Example 65, 8-(3-Ethylphenyl)-N-(4-methanesulfonylpyridin-3-yl)quinoxalin-6-amine] |
| 1 to 1000 nM | Cn1ccc2ccc(-c3cc(Oc4cnccc4C#N)cc4nccnc34)cc21 [Example 47, 3-{[8-(1-Methyl-1H-indol-6-yl)quinoxalin-6-yl]oxy}pyridine-4-carbonitrile] |
| 1 to 1000 nM | Cn1ccc2ccc(-c3cc(Nc4cnccc4S(C)(=O)=O)cc4nccnc34)c(F)c21 [Example 59, 8-(7-Fluoro-1-methyl-1H-indol-6-yl)-N-(4-methanesulfonylpyridin-3-yl)quinoxalin-6-amine] |
| 1 to 1000 nM | Cn1ccc2ccc(-c3cc(Nc4cc(C(=O)NN)ccc4S(C)(=O)=O)cc4nccnc34)cc21 [Example 119, 4-Methanesulfonyl-3-{[8-(1-methyl-1H-indol-6-yl)quinoxalin-6-yl]amino}benzohydrazide] |
| 1 to 1000 nM | Cn1ccc2ccc(-c3cc(Nc4cncnc4C(N)=O)cc4nccnc34)cc21 [Example 149, 5-{[8-(1-methyl-1H-indol-6-yl)quinoxalin-6-yl]amino}pyrimidine-4-carboxamide] |
| 1000 to 10000 nM | Cn1ccc2ccc(-c3cc(Nc4cccnc4N)cc4nccnc34)cc21 [Example 17, 3-N-[8-(1-methyl-1H-indol-6-yl)quinoxalin-6-yl]pyridine-2,3-diamine] |
| 1 to 1000 nM | CC(=O)N1CC(NC(=O)c2ccncc2Nc2cc(-c3ccc4scc(C)c4c3)c3nccnc3c2)C1 [Example 206, N-(1-Acetylazetidin-3-yl)-3-{[8-(3-methyl-1-benzothiophen-5-yl)quinoxalin-6-yl]amino}pyridine-4-carboxamide] |
| 10000 to 100000 nM | Cn1ccc2cc(-c3cc(Nc4cnccc4C#N)cc4nccnc34)ccc21 [Example 28, 3-{[8-(1-Methyl-1H-indol-5-yl)quinoxalin-6-yl]amino}pyridine-4-carbonitrile] |
| 10000 to 100000 nM | CS(=O)(=O)c1ccncc1Nc1cc(-c2cccc(NC(=O)C3CCCN3)c2)c2nccnc2c1 (centres unmarked) [Example 165, N-(3-{7-[(4-Methanesulfonylpyridin-3-yl)amino]quinoxalin-5-yl}phenyl)pyrrolidine-2-carboxamide] |
| 10000 to 100000 nM | Cn1nnc2cc(-c3cc(Nc4cnccc4S(C)(=O)=O)cc4nccnc34)ccc21 [Example 167, N-(4-methanesulfonylpyridin-3-yl)-8-(1-methyl-1H-1,2,3-benzotriazol-5-yl)quinoxalin-6-amine] |
| 10000 to 100000 nM | Cc1ccc(C(N)=O)c(-c2cc(Nc3cnccc3S(C)(=O)=O)cc3nccnc23)c1 [Example 128, 2-{7-[(4-methanesulfonylpyridin-3-yl)amino]quinoxalin-5-yl}-4-methylbenzamide] |
| 1 to 1000 nM | CS(=O)(=O)c1ccncc1Nc1cc(-c2ccc3nc(N)sc3c2)c2nccnc2c1 [Example 174, 8-(2-Amino-1,3-benzothiazol-6-yl)-N-(4-methanesulfonylpyridin-3-yl)quinoxalin-6-amine] |
| 1000 to 10000 nM | Cc1cccc(-c2cc(Nc3cnccc3S(C)(=O)=O)cc3nccnc23)c1 [Example 51, N-(4-Methanesulfonylpyridin-3-yl)-8-(3-methylphenyl)quinoxalin-6-amine] |
| 1 to 1000 nM | Cn1ccc2ccc(-c3cc(Nc4cnccc4C(=O)Nc4ccccc4)cc4nccnc34)cc21 [Example 96, 3-{[8-(1-Methyl-1H-indol-6-yl)quinoxalin-6-yl]amino}-N-phenylpyridine-4-carboxamide] |
| 1000 to 10000 nM | COC(=O)c1ccc(S(C)(=O)=O)c(Nc2cc(-c3ccc4ccn(C)c4c3)c3nccnc3c2)c1 [Example 115, Methyl 4-methanesulfonyl-3-{[8-(1-methyl-1H-indol-6-yl)quinoxalin-6-yl]amino}benzoate] |
| 1000 to 10000 nM | CNc1nc2cc(-c3cc(Nc4cnccc4S(C)(=O)=O)cc4nccnc34)ccc2s1 [Example 202, N-(4-Methanesulfonylpyridin-3-yl)-8-[2-(methylamino)-1,3-benzothiazol-5-yl]quinoxalin-6-amine] |
| 1000 to 10000 nM | Cn1ccc2ccc(-c3cc(Nc4c[n+]([O-])ccc4C#N)cc4nccnc34)cc21 [Example 90, 4-Cyano-3-{[8-(1-methyl-1H-indol-6-yl)quinoxalin-6-yl]amino}pyridin-1-ium-1-olate] |
| 1 to 1000 nM | CN(C)Cc1ccncc1Nc1cc(-c2ccc3ccn(C)c3c2)c2nccnc2c1 [Example 175, N-{4-[(dimethylamino)methyl]pyridin-3-yl}-8-(1-methyl-1H-indol-6-yl)quinoxalin-6-amine] |
| 10000 to 100000 nM | Cn1ccc2ccc(-c3cc(Nc4ncncc4Br)cc4nccnc34)cc21 [Example 204, N-(5-Bromopyrimidin-4-yl)-8-(1-methyl-1H-indol-6-yl)quinoxalin-6-amine] |
| 10000 to 100000 nM | CS(=O)(=O)c1ccncc1Nc1cc(-c2ccc3nc[nH]c3c2)c2nccnc2c1 [Example 61, 8-(1H-1,3-Benzodiazol-5-yl)-N-(4-methanesulfonylpyridin-3-yl)quinoxalin-6-amine] |
| 1 to 1000 nM | Cn1ccc2cc(F)c(-c3cc(Nc4cnccc4S(C)(=O)=O)cc4nccnc34)cc21 [Example 73, 8-(5-Fluoro-1-methyl-1H-indol-6-yl)-N-(4-methanesulfonylpyridin-3-yl)quinoxalin-6-amine] |
| 1 to 1000 nM | Cc1ccc(-c2cc(Nc3cnccc3S(C)(=O)=O)cc3nccnc23)cc1N [Example 75, 8-(3-Amino-4-methylphenyl)-N-(4-methanesulfonylpyridin-3-yl)quinoxalin-6-amine] |
| 1 to 1000 nM | CN1CCC(NC(=O)c2ccncc2Nc2cc(-c3ccc(Br)cc3)c3nccnc3c2)C1 (centres unmarked) [Example 215, 3-{[8-(4-Bromophenyl)quinoxalin-6-yl]amino}-N-(1-methylpyrrolidin-3-yl)pyridine-4-carboxamide] |
